{
  "source": "patent US8808992B2",
  "about": "“SHOC2 mutations causing noonan-like syndrome with loose anagen hair” (Icahn School of Medicine at Mount Sinai, priority 2009, dated 2014)",
  "target": "T1, NMT (Homo sapiens, UniProt P30419)",
  "T1 construct": "host or cells: Cos-1",
  "T1 sequence (P30419 1-496)": "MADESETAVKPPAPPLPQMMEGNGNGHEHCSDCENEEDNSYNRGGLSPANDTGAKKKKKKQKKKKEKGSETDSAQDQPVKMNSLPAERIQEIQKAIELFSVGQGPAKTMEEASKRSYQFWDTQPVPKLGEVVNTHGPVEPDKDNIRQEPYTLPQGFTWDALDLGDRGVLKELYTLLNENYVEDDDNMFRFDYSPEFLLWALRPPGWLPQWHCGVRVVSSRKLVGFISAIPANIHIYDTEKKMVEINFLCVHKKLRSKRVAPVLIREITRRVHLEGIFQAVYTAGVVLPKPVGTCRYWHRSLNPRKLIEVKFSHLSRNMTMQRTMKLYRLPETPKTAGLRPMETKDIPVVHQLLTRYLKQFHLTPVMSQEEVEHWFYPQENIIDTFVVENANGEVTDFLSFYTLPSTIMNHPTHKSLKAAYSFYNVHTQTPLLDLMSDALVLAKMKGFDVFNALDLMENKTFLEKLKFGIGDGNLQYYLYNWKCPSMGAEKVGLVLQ",
  "test": "Membrane targeting of V5-tagged SHOC2^S2G in Cos-1 cells treated with an NMT inhibitor (confocal laser scanning microscopy)",
  "assay_type": "cell-based, African green monkey",
  "experimental": "FIG. 8. Myristoylation is required for membrane targeting of the SHOC2^S2G mutant. […] Confocal laser scanning microscopy was performed using anti-V5 monoclonal antibody, followed by Alexa Fluor-594 goat anti-mouse antibody (red), while actin cytoskeleton was detected by Alexa Fluor 488-phalloidin (green). Nuclei are visualized by DAPI staining (blue). Co-localization areas were detected in yellow. Images represent single optical sections representative of >50 transfected cells observed in each experiment. Bars indicate 20 μm.\nN-myristoylation facilitates anchoring of proteins to intracellular membranes. To explore whether it conferred membrane targeting to mutant SHOC2, the subcellular localization of tagged SHOC2 proteins was analyzed in Cos-1 cells (FIG. 2b and FIG. 6). Confocal laser microscopy analysis documented that SHOC2^wt was uniformly distributed in the cytoplasm and nucleus in starved cells but was restricted to the nucleus following EGF stimulation, implying an unexpected role for this protein in signal transduction. […]\nIn silico analysis of protein N-myristoylation was performed using Myristoylator (http://www.expasy.org/tools/myristoylator/), TermiNator (http://www.isv.cnrs-gif.fr/terminator3/index.html) and NMT (http.//mendel.imp.ac.at/sat/myristate/index.html) software. […] N-myristoylation was evaluated by [^3H]myristic acid (30 μCi/ml) incorporation as described elsewhere^26. […]",
  "data": [
    {"compound": "CCCCCCCCCCCCC(O)C(=O)O", "note": "(centres unmarked) [2-hydroxymyristic acid]", "values": [
      {"measurement": "membrane targeting of V5-tagged SHOC2^S2G", "setting": "Cos-1 cells treated with 200 μM (middle) and 300 μM (bottom), compared with untreated cells", "value": "progressively lost"},
      {"measurement": "SHOC2^S2G's membrane localization", "setting": "Cos-1 cells, treatment at varying doses (FIG. 8)", "value": "reduced or abolished"}
    ]}
  ]
}
